In patent US10273487B2, “Transfection vector for pathogenic amoebae and uses thereof” (priority 2017, dated 2019):
Values after ≈ are worked out from the molar mass of the structure shown. Where two headings read alike, the source gives them in different places.

How the values were obtained:
N. fowleri [1] = assay: MTS viability assays in N. fowleri; parameters: IC50 Value / IC90 Value: unit not given beside the values; details: for IC50 Value / IC90 Value / IC95 Value: MTS viability assay, N. fowleri, Table 1, unit not given
N. fowleri [2] = assay: Preliminary experiments on natural resistance of N. fowleri to selection marker
Description: Five different selection markers were screened for their suitability to use in an N. fowleri transfection system. […] Hygromycin was used in subsequent studies as the selectable marker, partly due to its easy use in other eukaryotic transfection systems.

Molecule | IC50 Value (N. fowleri [1]) | IC90 Value (N. fowleri [1]) | IC95 Value (N. fowleri [1]) | resistance of N. fowleri to the selection marker (N. fowleri [2]) | IC50 (N. fowleri [1]; Naegleria fowleri, read-out: IC50 Value) | IC50 (N. fowleri [1]; Naegleria fowleri, read-out: IC50 values) | IC90 (N. fowleri [1]; Naegleria fowleri, read-out: IC90 Value)
neomycin | 681.1 | 2385.3 | 3078.4 | natural resistance | – | – | –
nourseothricin | 26.5 | 165.4 | 218.7 | – | – | – | –
COc1ccc(C[C@H](N)C(=O)N[C@H]2[C@@H](O)[C@H](n3cnc4c(N(C)C)ncnc43)O[C@@H]2CO)cc1 [puromycin] | – | – | 1.91 | – | 0.58 µg/mL (≈ 1.23 µM) | 0.6 µg/mL (≈ 1.27 µM) | 1.49 µg/mL (≈ 3.16 µM)
bleomycin | 0.49 | 1.62 | 2.10 | – | – | – | –
